Laboratory results reported in patent publication US6541463B1, “Inhibitors of type 5 and type 3 17β-hydroxysteroid dehydrogenase and methods for their use” (Endorecherche, Inc., priority 1998, dated 2003).

Assays:
[1] = In vivo assay of oral bioavailability (plasma AUC 0-7 h by LCMS/MS); design: species or system male Sprague Dawley rats; settings: male, Sprague-Dawley [Crl:CD(SD)Br], 0.5 mg; Table 4′; oral, rat plasma
Description: In column 1, the oral bioavailability of preferred type 5 inhibitors, expressed in ng/mL.h, was determined as described below in “Other Tests, A-In Vivo Assays of Bioavailability of Human Type 5 17β-HSD Inhibitors”. Higher number are desirable. ND means that a determination was not done.
The measurements at various time intervals were for values greater than or equal to 1.0 ng/mL and less than or equal to 50 ng/mL.
Male Sprague-Dawley rats [Crl:CD(SD)Br] weighing 275-350 g were obtained from Charles-River Canada Inc. and housed 2 per cage during the acclimation period and individually during the study period. The animals were maintained under a regimen of 12 hours light: 12 hours dark (lights on at 08:00). Animals received certified Rodent feed (Lab Diet #5002, pellets) and tap water ad libitum. Rats were fasted (access to water only) starting on the evening prior to dosing.
Each compound to be tested was administered to three animals as a suspension in 0.4% methylcellulose by oral gavage at a dose of 0.5 mg/rat (1.0 ml/rat). Four to eight new compounds were tested each day and one group of animals received megestrol acetate (MGA) under the same conditions on each dosing day as a reference. […] Blood samples were immediately transferred into a refrigerated 0.75 ml Microtainer containing EDTA and kept in an ice-water bath until centrifugation at 3000 rpm for 10 minutes. Plasma separation was performed rapidly (less than 50 minutes) after blood collection. One aliquot of 0.25 ml of plasma was then transferred into a borosilicate tube (13×100) and was rapidly frozen on dry-ice. Plasma samples were kept at −80° C. until measurement of plasma concentration of the inhibitor(s) by LCMS/MS.
Aliquots of rat plasma (0.250 mL) were transferred to 13×100 mm borosilicate tubes. Water (1.0 mL) and internal standard solution (0.1 mL) were added to each sample and vortexed for 2 min. A mixture of N-butyl chloride and acetone (v:v, 7:3) (3 mL) was added to each sample and vortexed for 2 min. This step was repeated and the combined organic phases were evaporated to dryness under nitrogen in a Turbo Vap evaporator at 35° C. The residue was reconstituted with 1 mL of methanol and evaporated in a Turbo Vap evaporator at 35° C. The final extract was reconstituted into 0.1 mL of methanol/water (v:v, 75:25) and then transferred into a conical vial for injection into the mass spectrometer.
The assay procedure was performed by analyzing, in duplicate, rat plasma samples spiked at six different Type 5 inhibitor concentrations (1, 2, 5, 10, 20 and 50 ng/mL). The lower limit of quantitation (LOQ) was established at 1.0 ng/mL. Values lower than 1.0 ng/mL were expressed as below limit of quantification (BLQ). […]

[2] = target: T1, human type 5 17β-hydroxysteroid dehydrogenase (Homo sapiens, UniProt P42330); assay: Reversibility of human type 5 17β-HSD inhibitory activity (preincubation, wash); type: cell-based; settings: Table 4′
T1 construct: screen again a human placental λgt11 cDNA to get the full length cDNA clone; expressed in transfected cells; host or cells: human embryonal kidney 293 cells (pCMV / pCMV-neo vector)
T1 sequence (P42330 1-323): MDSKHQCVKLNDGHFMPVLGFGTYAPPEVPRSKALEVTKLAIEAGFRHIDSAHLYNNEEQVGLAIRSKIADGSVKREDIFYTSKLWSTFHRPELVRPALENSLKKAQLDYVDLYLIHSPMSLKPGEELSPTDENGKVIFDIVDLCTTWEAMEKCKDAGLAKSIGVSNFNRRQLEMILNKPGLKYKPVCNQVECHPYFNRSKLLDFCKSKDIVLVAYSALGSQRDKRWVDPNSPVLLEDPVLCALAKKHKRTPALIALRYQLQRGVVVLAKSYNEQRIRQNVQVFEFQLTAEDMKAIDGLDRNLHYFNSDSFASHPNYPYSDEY
Description: In column 3, the reversibility of the inhibition of type 5 17β-hydroxysteroid dehydrogenase activity expressed in percentage of control is reported. The manner in which the reversibility is determined is described in “Efficacy of Preferred Inhibitors: V. Reversibility of Human Type 5 17β-HSD Inhibitory Activity”. Lower number is desirable. Blank means that a determination was not done.
Determination of activity was performed as described (Luu-The et al., Mol. Endocrionol. 4: 268-275, 1990, Lachance et al., J. Biol. Chem. 265: 20469-20475, 1990; Luu-The et al., DNA & Cell Biol. 14: 511-518, 1995). Briefly, 0.1 μM of the indicated ^14C-labeled substrate (Dupont Inc. (Canada), namely, DHEA, 4-androstene-3,17-dione (Δ4), in absence or presence of increasing concentration of preferred inhibitor of the invention, was added to freshly changed culture medium in a 6-well culture plate. After incubation for 1 h, the steroids were extracted twice with 2 ml of ether. The organic phase were pooled and evaporated to dryness. The steroids were solubilized in 50 μl of dichloromethane, applied to Silica gel 60 thin layer chromatography (TLC) plate (Merck, Darmstad, Germany) then separated by migration in the toluene-acetone (4:1) solvent system. […] Transfection could be also performed with HeLa, SW-13, 293, COS-1 cells, the preferred cell line is 293 cells.
The reversibility assay was performed as described above for the standard type 5 17β-HSD enzymatic assay, except that before adding the ^14C-labeled substrate, the cells were preincubated with 0.3 μM of the indicated inhibitor for 1 h, (or the indicated time interval), followed by two washes with phosphate saline buffer (PBS).

Structure (SMILES) | AUC(0-t) [1] [ng·h/mL] | Reversibility ((%) of control) [2]
COCCOc1cc2c(cc1C(=O)OC)C1CC[C@@]3(C)C(CC[C@@]34CCC(C)(C)C(=O)O4)C1CC2 (stereo partly drawn) [EM-1402-CS, 2-Carbomethoxy-3-(2″-methoxyethyloxy)-1,3,5(10)-estratrien 17(R)-spiro-2′-(5′,5′-dimethyl-6′-oxo)tetrahydropyran] | 214 ± 36 | 25 % of control
CC1(C)CCC2(CCC3C4CCc5cc(OCCN6CCCCC6)ccc5C4CCC32C)OC1=O [EM-1390-CS, 3-(N-piperidyl-ethyl)-1,3,5(10)-estratrien-17(R)-spiro-2′-(5′,5′-dimethyl-6′-oxo)-tetrahydropyran] | 401 ± 5 | 50 % of control
COc1ccc2c(c1)C(=O)CC1C3CCC4(CCC(C)(C)C(=O)O4)C3(C)CCC21O (stereo not drawn) [EM-1386] | 5600 ± 789 | 54 % of control
